Measured values published in patent US20240164998A1, “FRAGRANCE COMPOSITION” (TAKASAGO INTERNATIONAL CORPORATION, priority 2022, published 2024).
Structures can show the parent of a compound that is named as a salt.

Experiments:
[1] = Sensory evaluation of malodor prevention ability of group A against hexanal odor; set-up: species or system people; settings: scale 0 (no malodor felt) to 10 (very strong); hexanal alone rated 8; 10 μL hexanal diluted 100 times + 1 μL test substance, 1 hour room temperature; average of panel of 20
Procedure: The malodor prevention ability of a test substance was confirmed by sensory evaluation. As malodor, 10 μL of hexanal diluted 100 times with dipropylene glycol and 1 μL of the test substance were dropped into a cotton ball, which was charged into a plastic bottle. The bottle was left standing at room temperature for 1 hour to allow odor molecules to sufficiently volatilize inside the bottle. A sensory evaluation test was performed by a panel of 20 people, a malodor intensity when the malodor was dropped alone was rated as 8, and the odor intensity when the test substance was mixed was evaluated from 0 (no malodor was felt) to 10 (very strong malodor was felt). An average value was calculated from the obtained numerical values.

[2] = Sensory evaluation of fragrance compositions against model body odor; set-up: species or system people; settings: each malodor (model body odor, model nursing care odor); substance in floral base fragrance composition
Procedure: TEC in the tables indicates triethyl citrate. […] Note that, a grouping method and the ratio within the groups are optional and are not limited by Table 9. Floral bases in Table 2 to Table 8 were prepared according to Table 10.
The malodor prevention ability of these fragrance compositions was confirmed by sensory evaluation. As for malodor, model body odor and model nursing care odor containing hexanal as one of key components were prepared according to Table 11 and Table 12. 10 μL of each model malodor and 1 μL of the fragrances 1 to 60 as test substances were dropped into a cotton ball, which was charged into a plastic bottle. The bottle was left standing at room temperature for 30 minutes to allow odor molecules to sufficiently volatilize inside the bottle. A sensory evaluation test was performed by a panel of 20 people, the discomfort when the malodor was dropped alone was rated as −3, and the discomfort when the test substance was mixed was evaluated from −4 (extremely discomfortable) to +4 (extremely comfortable). An average value was calculated from the obtained numerical values.

O=C1CCCC=CCCCCCCCCCC1 [Ambretone, 5-cyclohexadecenone]
Hexanal odor intensity [1]: 3.5
effect on reducing the discomfort due to malodor (in words) [2]: reduced the discomfort due to each malodor

CC1CCC(C(C)C)C(OCC(O)CO)C1 (stereo not shown) [COOLACT 10, 3-(menthoxy)propane-1,2-diol]
Hexanal odor intensity [1]: 3.3

C=C(C)C1CC=C(C)C(=O)C1 (stereo not shown) [Carvone, reference compound]
Hexanal odor intensity [1]: 7.1

CCCC(O)CCC1C(C)CCCC1(C)C (stereo not shown) [Dextramber, 1-(2,2,6-trimethylcyclohexyl)hexan-3-ol]
Hexanal odor intensity [1]: 3.0
effect on reducing the discomfort due to malodor (in words) [2]: reduced the discomfort due to each malodor

CCCCCC1C(=O)CCC1CC(=O)OC (stereo not shown) [Hedione, methyl (2-pentyl-3-oxo-cyclopentyl) acetate]
Hexanal odor intensity [1]: 4.2
effect on reducing the discomfort due to malodor (in words) [2]: reduced the discomfort due to each malodor

CC(=CCC1CC=C(C)C1(C)C)CO (stereo not shown) [Hindinol, 2-methyl-4-(2,2,3-trimethyl-3-cyclopentenyl)-2-buten-1-ol]
Hexanal odor intensity [1]: 3.9
effect on reducing the discomfort due to malodor (in words) [2]: reduced the discomfort due to each malodor

C=C(C)[C@@H]1CC[C@@H](C)C[C@H]1O [Isopulegol, isopulegol]
Hexanal odor intensity [1]: 3.4
effect on reducing the discomfort due to malodor (in words) [2]: reduced the discomfort due to each malodor

CC(C)[C@@H]1CC[C@@H](C)CC1=O [Menthone, reference compound]
Hexanal odor intensity [1]: 6.9

CC(=O)C1(C)CC2=C(CCCC2(C)C)CC1C (stereo not shown) [Orbitone, 2-acetyl-2,3,8,8-tetramethyloctarine]
Hexanal odor intensity [1]: 3.9
effect on reducing the discomfort due to malodor (in words) [2]: reduced the discomfort due to each malodor

CC(c1ccccc1)C1CC1C(C)(C)O (stereo not shown) [Pamplefix, 50% triethyl citrate solution, dimethyl-2-(1-phenylethyl)cyclopropylmethanol]
Hexanal odor intensity [1]: 4.1
effect on reducing the discomfort due to malodor (in words) [2]: reduced the discomfort due to each malodor

CC1=CCC(C(C)C)C=C1 (stereo not shown) [Phellandrene, p-mentha-1,5-diene]
Hexanal odor intensity [1]: 4.1
effect on reducing the discomfort due to malodor (in words) [2]: reduced the discomfort due to each malodor

CCOC(=O)C1C(C)CCCC1(C)C (stereo not shown) [Thesaron, ethyl 2,2,6-trimethylcyclohexane-1-carboxylate]
Hexanal odor intensity [1]: 2.6
effect on reducing the discomfort due to malodor (in words) [2]: reduced the discomfort due to each malodor

CCOC(=O)C(C)C(C)S (stereo not shown) [ethyl 3-mercapto-2-methylbutyrate]
Hexanal odor intensity [1]: 3.1
effect on reducing the discomfort due to malodor (in words) [2]: reduced the discomfort due to each malodor

CC(=O)C(C)=CC1C(C)=CCCC1(C)C (stereo not drawn) [α-isomethylionone, 3-methyl-4-(2,6,6-trimethyl-2-cyclohexen-1-yl)-3-buten-2-one]
Hexanal odor intensity [1]: 3.1
effect on reducing the discomfort due to malodor (in words) [2]: reduced the discomfort due to each malodor
